#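 96-well plates; 48 h exposure; 5 concentrations. Endpoints by linear interpolation between flanking doses. Not reached: highest tested concentration assigned. GI50 is the concentration that inhibits growth by half. The concentration for full growth arrest is given as TGI.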
# Assays:
# Assay in all cases: NCI anticancer screen, dose series, 48 h
# 786-0 renal = tested on: 786-0 renal
# A498 renal = tested on: A498 renal
# A549 NSCLC = tested on: A549 NSCLC
# ACHN renal = tested on: ACHN renal
# BT-549 breast = tested on: BT-549 breast
# CAKI-1 renal = tested on: CAKI-1 renal
# CCRF-CEM leukemia = tested on: CCRF-CEM leukemia
# COLO 205 colon = tested on: COLO 205 colon
# DU-145 prostate = tested on: DU-145 prostate
# EKVX NSCLC = tested on: EKVX NSCLC
# HCC-2998 colon = tested on: HCC-2998 colon
# HCT-116 colon = tested on: HCT-116 colon
# HCT-15 colon = tested on: HCT-15 colon
# HL-60(TB) leukemia = tested on: HL-60(TB) leukemia
# HOP-62 NSCLC = tested on: HOP-62 NSCLC
# HS 578T breast = tested on: HS 578T breast
# HT29 colon = tested on: HT29 colon
# IGROV1 ovarian = tested on: IGROV1 ovarian
# K-562 leukemia = tested on: K-562 leukemia
# KM12 colon = tested on: KM12 colon
# LOX IMVI melanoma = tested on: LOX IMVI melanoma
# M14 melanoma = tested on: M14 melanoma
# MALME-3M melanoma = tested on: MALME-3M melanoma
# MCF7 breast = tested on: MCF7 breast
# MDA-MB-231 breast = tested on: MDA-MB-231 breast
# MDA-MB-435 = tested on: MDA-MB-435
# MOLT-4 leukemia = tested on: MOLT-4 leukemia
# NCI-H226 lung = tested on: NCI-H226 lung
# NCI-H23 lung = tested on: NCI-H23 lung
# NCI-H460 lung = tested on: NCI-H460 lung
# NCI-H522 lung = tested on: NCI-H522 lung
# NCI/ADR-RES ovarian = tested on: NCI/ADR-RES ovarian
# OVCAR-3 ovarian = tested on: OVCAR-3 ovarian
# OVCAR-4 ovarian = tested on: OVCAR-4 ovarian
# OVCAR-5 ovarian = tested on: OVCAR-5 ovarian
# OVCAR-8 ovarian = tested on: OVCAR-8 ovarian
# PC-3 prostate = tested on: PC-3 prostate
# RPMI-8226 leukemia = tested on: RPMI-8226 leukemia
# RXF 393 renal = tested on: RXF 393 renal
# SF-268 CNS = tested on: SF-268 CNS
# SF-295 CNS = tested on: SF-295 CNS
# SF-539 CNS = tested on: SF-539 CNS
# SK-MEL-2 melanoma = tested on: SK-MEL-2 melanoma
# SK-MEL-28 melanoma = tested on: SK-MEL-28 melanoma
# SK-MEL-5 melanoma = tested on: SK-MEL-5 melanoma
# SK-OV-3 ovarian = tested on: SK-OV-3 ovarian
# SN12C renal = tested on: SN12C renal
# SNB-19 CNS = tested on: SNB-19 CNS
# SNB-75 CNS = tested on: SNB-75 CNS
# SR leukemia = tested on: SR leukemia
# SW-620 colon = tested on: SW-620 colon
# T-47D breast = tested on: T-47D breast
# TK-10 renal = tested on: TK-10 renal
# U251 CNS = tested on: U251 CNS
# UACC-257 melanoma = tested on: UACC-257 melanoma
# UACC-62 melanoma = tested on: UACC-62 melanoma
# UO-31 renal = tested on: UO-31 renal
smiles,measurement,setting,value
COc1cccc(N2CCN(c3ncnc4cc[nH]c34)CC2)c1,GI50,786-0 renal,29.1 µM
same,TGI,786-0 renal,> 100 µM
same,GI50,A498 renal,1.65 µM
same,TGI,A498 renal,79.3 µM
same,GI50,A549 NSCLC,12.2 µM
same,TGI,A549 NSCLC,> 100 µM
same,GI50,ACHN renal,19 µM
same,TGI,ACHN renal,> 100 µM
same,GI50,BT-549 breast,2.66 µM
same,TGI,BT-549 breast,26.8 µM
same,GI50,CAKI-1 renal,5.75 µM
same,TGI,CAKI-1 renal,> 100 µM
same,GI50,CCRF-CEM leukemia,9.61 µM
same,TGI,CCRF-CEM leukemia,> 100 µM
same,GI50,COLO 205 colon,11.2 µM
same,TGI,COLO 205 colon,45.5 µM
same,GI50,DU-145 prostate,43.2 µM
same,TGI,DU-145 prostate,> 100 µM
same,GI50,EKVX NSCLC,0.94 µM
same,TGI,EKVX NSCLC,> 100 µM
same,GI50,HCC-2998 colon,7.19 µM
same,TGI,HCC-2998 colon,> 100 µM
same,GI50,HCT-116 colon,3.67 µM
same,TGI,HCT-116 colon,> 100 µM
same,GI50,HCT-15 colon,24.4 µM
same,TGI,HCT-15 colon,> 100 µM
same,GI50,HL-60(TB) leukemia,5.84 µM
same,TGI,HL-60(TB) leukemia,74 µM
same,GI50,HOP-62 NSCLC,17.8 µM
same,TGI,HOP-62 NSCLC,> 100 µM
same,GI50,HS 578T breast,35.7 µM
same,TGI,HS 578T breast,> 100 µM
same,GI50,HT29 colon,20 µM
same,TGI,HT29 colon,> 100 µM
same,GI50,IGROV1 ovarian,32.2 µM
same,TGI,IGROV1 ovarian,> 100 µM
same,GI50,K-562 leukemia,1.26 µM
same,TGI,K-562 leukemia,> 100 µM
same,GI50,KM12 colon,9.8 µM
same,TGI,KM12 colon,85 µM
same,GI50,LOX IMVI melanoma,13.9 µM
same,TGI,LOX IMVI melanoma,> 100 µM
same,GI50,M14 melanoma,3.76 µM
same,TGI,M14 melanoma,26.3 µM
same,GI50,MALME-3M melanoma,10 µM
same,TGI,MALME-3M melanoma,55.3 µM
same,GI50,MCF7 breast,2.65 µM
same,TGI,MCF7 breast,47.4 µM
same,GI50,MDA-MB-231 breast,79.9 µM
same,TGI,MDA-MB-231 breast,> 100 µM
same,GI50,MDA-MB-435,2.73 µM
same,TGI,MDA-MB-435,19 µM
same,GI50,MOLT-4 leukemia,2.46 µM
same,TGI,MOLT-4 leukemia,21.4 µM
same,GI50,NCI-H226 lung,1.59 µM
same,TGI,NCI-H226 lung,75.7 µM
same,GI50,NCI-H23 lung,3.47 µM
same,TGI,NCI-H23 lung,> 100 µM
same,GI50,NCI-H460 lung,7.19 µM
same,TGI,NCI-H460 lung,> 100 µM
same,GI50,NCI-H522 lung,8.78 µM
same,TGI,NCI-H522 lung,64.1 µM
same,GI50,NCI/ADR-RES ovarian,2.87 µM
same,TGI,NCI/ADR-RES ovarian,40.4 µM
same,GI50,OVCAR-3 ovarian,9.51 µM
same,TGI,OVCAR-3 ovarian,> 100 µM
same,GI50,OVCAR-4 ovarian,1.73 µM
same,TGI,OVCAR-4 ovarian,> 100 µM
same,GI50,OVCAR-5 ovarian,43.6 µM
same,TGI,OVCAR-5 ovarian,> 100 µM
same,GI50,OVCAR-8 ovarian,3.46 µM
same,TGI,OVCAR-8 ovarian,56.1 µM
same,GI50,PC-3 prostate,6.99 µM
same,TGI,PC-3 prostate,> 100 µM
same,GI50,RPMI-8226 leukemia,2.78 µM
same,TGI,RPMI-8226 leukemia,94.8 µM
same,GI50,RXF 393 renal,33.6 µM
same,TGI,RXF 393 renal,> 100 µM
same,GI50,SF-268 CNS,14.9 µM
same,TGI,SF-268 CNS,> 100 µM
same,GI50,SF-295 CNS,1.57 µM
same,TGI,SF-295 CNS,43 µM
same,GI50,SF-539 CNS,20.8 µM
same,TGI,SF-539 CNS,> 100 µM
same,GI50,SK-MEL-2 melanoma,10.3 µM
same,TGI,SK-MEL-2 melanoma,50.9 µM
same,GI50,SK-MEL-28 melanoma,10.7 µM
same,TGI,SK-MEL-28 melanoma,62.3 µM
same,GI50,SK-MEL-5 melanoma,0.394 µM
same,TGI,SK-MEL-5 melanoma,2.77 µM
same,GI50,SK-OV-3 ovarian,51.5 µM
same,TGI,SK-OV-3 ovarian,> 100 µM
same,GI50,SN12C renal,32.6 µM
same,TGI,SN12C renal,> 100 µM
same,GI50,SNB-19 CNS,> 100 µM
same,TGI,SNB-19 CNS,> 100 µM
same,GI50,SNB-75 CNS,15.1 µM
same,TGI,SNB-75 CNS,60.4 µM
same,GI50,SR leukemia,1.73 µM
same,TGI,SR leukemia,> 100 µM
same,GI50,SW-620 colon,68.6 µM
same,TGI,SW-620 colon,> 100 µM
same,GI50,T-47D breast,2.92 µM
same,TGI,T-47D breast,44.1 µM
same,GI50,TK-10 renal,25.5 µM
same,TGI,TK-10 renal,> 100 µM
same,GI50,U251 CNS,12.7 µM
same,TGI,U251 CNS,> 100 µM
same,GI50,UACC-257 melanoma,2.32 µM
same,TGI,UACC-257 melanoma,29.2 µM
same,GI50,UACC-62 melanoma,6.05 µM
same,TGI,UACC-62 melanoma,39.8 µM
same,GI50,UO-31 renal,7.37 µM
same,TGI,UO-31 renal,> 100 µM

# Reference: PubChem BioAssay (NCI)
